# Reference: US20260297121A1, “MITHRAMYCIN (MTM) 2’ OXIMES” (University of Kentucky Research Foundation, priority 2023, published 2026)
# Read-outs that look alike come from different tables or passages of the source.
# Tests used:
# [1] = Clearance (CL) / pharmacokinetics; format: in vivo, mice; settings: for clearance: mouse, plasma, iv
# Procedure: (§1) Exemplary compounds of the presently-disclosed subject matter were assessed for activity, including clearance, potency, and selectivity. Results from studies are compiled in Tables 2-4.
# (§2) Desirable clearance was identified at lower values of mL hr^−1kg^−1 (e.g., about ≤10 mL hr^−1 kg^−1), desirable potency was identified at lower values of IC50 (e.g., about ≤10 nM in TC32 cells), and desired selectivity was identified at higher ratios of IC50 in PC3/IC50 in TC32 (e.g. about >10).
# Pharmacokinetics of exemplary compounds of the presently-disclosed subject matter were studied in mice following bolus IV dosing. Groups of three mice were administered the compound(s) and blood samples were collected via saphenous bleed. Plasma was separated by centrifugation and extracted to quantitate analytes by LC/MS/MS. Sample analysis followed upon the system meeting system suitability criteria customary for fit for purpose analytical methods. FIG. 1A includes data comparing YL-C09 to mithramycin (MTM) dosed separately. FIG. 1B includes data for YL-B171, YL-C110 and MTM dosed in cassette format.
# TC32 cells = assay: Potency IC50 in TC32 cells and selectivity; format: cell-based; settings: Homo sapiens
# Procedure: as §1, §2
# log P = format: physicochemical
# PC3 [2] = assay: IC50 in PC3 cells; format: cell-based; settings: head prints PC2, text PC3
# Procedure: as §1, §2
# TC32 = assay: Cytotoxicity, resazurin fluorescence, TC32; format: cell-based; settings: Homo sapiens, TC-32, 72 h, read-out: GI50 TC32, Table 5
# Procedure: (§3) Exemplary compounds of the presently-disclosed subject matter were assessed for cytotoxicity (Table 5) in Ewing sarcoma (TC32) and non-Ewing (PC3 prostate cancer). […] Cells (1000-5000/well) were seeded in 96-well plates and allowed to attach and grow for 24 hr prior to adding compounds in half-log increments from 0.3 nM-10 μM. Cell viability was assessed after 72 hr continuous incubation with compounds using resazurin fluorescence. GI50 values were estimated using GraphPad Prism.
# PC3 [3] = assay: Cytotoxicity, resazurin fluorescence, PC3; format: cell-based; settings: for GI50: Homo sapiens, PC-3, 72 h, read-out: GI50 PC3, Table 5; for GI50 PC3: Table 5, 72 hr
# Procedure: as §3
# [4] = TC-32, Table 2, read-out: IC50 TC32
# [5] = TC-32, Table 4, read-out: IC50 TC32
# [6] = Homo sapiens, PC-3, read-out: IC50 PC2, Table 2
# [7] = Homo sapiens, PC-3, read-out: IC50 PC2, Table 4
# [8] = TC-32, Table 3, read-out: IC50 TC32
# [9] = Homo sapiens, PC-3, read-out: IC50 PC2, Table 3
Compound,CL ([1]; Table 4) [mL/min/kg],PK Improvement ([1]; Table 4),clearance ([1]; Table 2) [mL/min/kg],IC50 (TC32 cells; [4]) [nM],logP (log P; Table 2),IC50 (PC3 [2]; [6]) [nM],CL ([1]; Table 3) [mL/min/kg],GI50 (TC32) [nM],GI50 (PC3 [3]) [nM],other results
CO[C@H](C(=NOCCNC(=O)c1cc2cc(Cl)ccc2[nH]1)[C@@H](O)[C@@H](C)O)[C@@H]1Cc2cc3cc(O[C@H]4C[C@@H](O[C@H]5C[C@@H](O)[C@H](O)[C@@H](C)O5)[C@H](O)[C@@H](C)O4)c(C)c(O)c3c(O)c2C(=O)[C@H]1O[C@H]1C[C@@H](O[C@H]2C[C@@H](O[C@H]3C[C@](C)(O)[C@H](O)[C@@H](C)O3)[C@@H](O)[C@@H](C)O2)[C@H](O)[C@@H](C)O1 [YL-B152],0.733,35.9,0.733,8.34,2.19,17.6,,,,IC50 (TC32 cells; [5]): 8.3 nM; logP (log P; Table 4): 2.2; IC50 (PC3 [2]; [7]): 17.6 nM
COC(C(=NOCCNC(=O)c1[nH]c2ccc(Cl)cc2c1-c1ccccc1)C(O)C(C)O)C1Cc2cc3cc(OC4CC(OC5CC(O)C(O)C(C)O5)C(O)C(C)O4)c(C)c(O)c3c(O)c2C(=O)C1OC1CC(OC2CC(OC3CC(C)(O)C(O)C(C)O3)C(O)C(C)O2)C(O)C(C)O1 (stereo not shown) [YL-B176],0.35,75.1,0.35,13.9,3.49,178,0.35,117,304,IC50 (TC32 cells; [8]): 13.9 nM; IC50 (TC32 cells; [5]): 13.9 nM; logP (log P; Table 3): 3.49; logP (log P; Table 4): 3.5; IC50 (PC3 [2]; [9]): 178 nM; IC50 (PC3 [2]; [7]): 178 nM
COC(C(=NOCc1[nH]c2ccc(Cl)cc2c1-c1ccccc1)C(O)C(C)O)C1Cc2cc3cc(OC4CC(OC5CC(O)C(O)C(C)O5)C(O)C(C)O4)c(C)c(O)c3c(O)c2C(=O)C1OC1CC(OC2CC(OC3CC(C)(O)C(O)C(C)O3)C(O)C(C)O2)C(O)C(C)O1 (stereo not shown) [YL-C51],,,0.25,456,4.19,2790,,> 1000,,GI50 PC3 (PC3 [3]): > 1000 nM
COC(C(=NOCCNC(=O)c1[nH]c2ccc(C(F)(F)F)cc2c1-c1ccccc1)C(O)C(C)O)C1Cc2cc3cc(OC4CC(OC5CC(O)C(O)C(C)O5)C(O)C(C)O4)c(C)c(O)c3c(O)c2C(=O)C1OC1CC(OC2CC(OC3CC(C)(O)C(O)C(C)O3)C(O)C(C)O2)C(O)C(C)O1 (stereo not shown) [YL-C66],0.2,131.5,,,,,0.2,,,log P (log P; Table 3): 3.84; log P (log P; Table 4): 3.8; IC50 (PC3 [2]; Table 3): 283 nM
CO[C@H](C(=NOCCNC(=O)c1[nH]c2ccc(C(F)(F)F)cc2c1-c1ccc(Cl)cc1)[C@@H](O)[C@@H](C)O)[C@@H]1Cc2cc3cc(O[C@H]4C[C@@H](O[C@H]5C[C@@H](O)[C@H](O)[C@@H](C)O5)[C@H](O)[C@@H](C)O4)c(C)c(O)c3c(O)c2C(=O)[C@H]1O[C@H]1C[C@@H](O[C@H]2C[C@@H](O[C@H]3C[C@](C)(O)[C@H](O)[C@@H](C)O3)[C@@H](O)[C@@H](C)O2)[C@H](O)[C@@H](C)O1 [YL-C67],0.167,157.8,,,,,0.167,,,CL ([1]; Table 2): 0.167 mL/min/kg; GI50 PC3 (PC3 [3]): > 1000 nM; log P (log P; Table 2): 4.56; log P (log P; Table 3): 4.56; log P (log P; Table 4): 4.6; IC50 (PC3 [2]; Table 3): 1230 nM
CO[C@H](C(=NOCCNC(=O)c1[nH]c2ccc(C(F)(F)F)cc2c1-c1ccc(F)c(Cl)c1)[C@@H](O)[C@@H](C)O)[C@@H]1Cc2cc3cc(O[C@H]4C[C@@H](O[C@H]5C[C@@H](O)[C@H](O)[C@@H](C)O5)[C@H](O)[C@@H](C)O4)c(C)c(O)c3c(O)c2C(=O)[C@H]1O[C@H]1C[C@@H](O[C@H]2C[C@@H](O[C@H]3C[C@](C)(O)[C@H](O)[C@@H](C)O3)[C@@H](O)[C@@H](C)O2)[C@H](O)[C@@H](C)O1 [YL-C68],,,,,,,,,,GI50 PC3 (PC3 [3]): > 1000 nM; log P (log P; Table 3): 4.54
CO[C@H](C(=NOCCNC(=O)c1[nH]c2ccc(Cl)cc2c1-c1ccc(Cl)cc1)[C@@H](O)[C@@H](C)O)[C@@H]1Cc2cc3cc(O[C@H]4C[C@@H](O[C@H]5C[C@@H](O)[C@H](O)[C@@H](C)O5)[C@H](O)[C@@H](C)O4)c(C)c(O)c3c(O)c2C(=O)[C@H]1O[C@H]1C[C@@H](O[C@H]2C[C@@H](O[C@H]3C[C@](C)(O)[C@H](O)[C@@H](C)O3)[C@@H](O)[C@@H](C)O2)[C@H](O)[C@@H](C)O1 [YL-C82],0.383,68.6,0.383,20.2,4.21,515,0.383,356,805,"IC50 (TC32 cells; [5]): 20.2 nM; IC50 (TC32 cells; TC-32, read-out: IC50 TC32, Table 3): 12 nM; logP (log P; Table 3): 4.21; logP (log P; Table 4): 4.2; IC50 (PC3 [2]; [9]): 218 nM; IC50 (PC3 [2]; [7]): 515 nM"
COC(C(=NOCCCNC(=O)c1[nH]c2ccc(Cl)cc2c1-c1ccc(Cl)cc1)C(O)C(C)O)C1Cc2cc3cc(OC4CC(OC5CC(O)C(O)C(C)O5)C(O)C(C)O4)c(C)c(O)c3c(O)c2C(=O)C1OC1CC(OC2CC(OC3CC(C)(O)C(O)C(C)O3)C(O)C(C)O2)C(O)C(C)O1 (stereo not shown) [YL-C95],,,,,,,,,,CL ([1]; Table 2): 0.433 mL/min/kg; GI50 PC3 (PC3 [3]): > 1000 nM; log P (log P; Table 2): 4.69
CO[C@H](C(=NOCCNC(=O)c1[nH]c2ccc(Cl)cc2c1-c1cnn(C)c1)[C@@H](O)[C@@H](C)O)[C@@H]1Cc2cc3cc(O[C@H]4C[C@@H](O[C@H]5C[C@@H](O)[C@H](O)[C@@H](C)O5)[C@H](O)[C@@H](C)O4)c(C)c(O)c3c(O)c2C(=O)[C@H]1O[C@H]1C[C@@H](O[C@H]2C[C@@H](O[C@H]3C[C@](C)(O)[C@H](O)[C@@H](C)O3)[C@@H](O)[C@@H](C)O2)[C@H](O)[C@@H](C)O1 [YL-C102],,,,7.4,2.26,43,,49,334,
COC(C(=NOCCNC(=O)c1[nH]c2ccc(Cl)cc2c1-c1ccnn1C)C(O)C(C)O)C1Cc2cc3cc(OC4CC(OC5CC(O)C(O)C(C)O5)C(O)C(C)O4)c(C)c(O)c3c(O)c2C(=O)C1OC1CC(OC2CC(OC3CC(C)(O)C(O)C(C)O3)C(O)C(C)O2)C(O)C(C)O1 (stereo not shown) [YL-C104],,,0.517,5.63,1.77,23,,34,133,
COC(C(=NOCCNC(=O)c1[nH]c2ccc(Cl)cc2c1-c1cccs1)C(O)C(C)O)C1Cc2cc3cc(OC4CC(OC5CC(O)C(O)C(C)O5)C(O)C(C)O4)c(C)c(O)c3c(O)c2C(=O)C1OC1CC(OC2CC(OC3CC(C)(O)C(O)C(C)O3)C(O)C(C)O2)C(O)C(C)O1 (stereo not shown) [YL-C106],0.317,83.1,0.317,17.2,3.3,202,0.317,99,236,IC50 (TC32 cells; [8]): 17 nM; IC50 (TC32 cells; [5]): 17.2 nM; logP (log P; Table 3): 3.3; logP (log P; Table 4): 3.3; IC50 (PC3 [2]; [9]): 202 nM; IC50 (PC3 [2]; [7]): 202 nM
CO[C@H](C(=NOCCNC(=O)c1[nH]c2ccc(Cl)cc2c1-c1cnoc1)[C@@H](O)[C@@H](C)O)[C@@H]1Cc2cc3cc(O[C@H]4C[C@@H](O[C@H]5C[C@@H](O)[C@H](O)[C@@H](C)O5)[C@H](O)[C@@H](C)O4)c(C)c(O)c3c(O)c2C(=O)[C@H]1O[C@H]1C[C@@H](O[C@H]2C[C@@H](O[C@H]3C[C@](C)(O)[C@H](O)[C@@H](C)O3)[C@@H](O)[C@@H](C)O2)[C@H](O)[C@@H](C)O1 [YL-C108],,,0.4,6.12,1.44,40.3,,34,126,
CO[C@H](C(=NOCCNC(=O)c1[nH]c2ccc(F)cc2c1-c1ccc(Cl)cc1)[C@@H](O)[C@@H](C)O)[C@@H]1Cc2cc3cc(O[C@H]4C[C@@H](O[C@H]5C[C@@H](O)[C@H](O)[C@@H](C)O5)[C@H](O)[C@@H](C)O4)c(C)c(O)c3c(O)c2C(=O)[C@H]1O[C@H]1C[C@@H](O[C@H]2C[C@@H](O[C@H]3C[C@](C)(O)[C@H](O)[C@@H](C)O3)[C@@H](O)[C@@H](C)O2)[C@H](O)[C@@H](C)O1 [YL-C118],,,0.467,36.6,3.64,582,,232,417,
COC(C(=NOCCNC(=O)c1[nH]c2ccc(O)cc2c1-c1ccc(Cl)cc1)C(O)C(C)O)C1Cc2cc3cc(OC4CC(OC5CC(O)C(O)C(C)O5)C(O)C(C)O4)c(C)c(O)c3c(O)c2C(=O)C1OC1CC(OC2CC(OC3CC(C)(O)C(O)C(C)O3)C(O)C(C)O2)C(O)C(C)O1 (stereo not shown) [YL-C120],,,0.417,7.6,3.04,31.4,,36,66,
